Results published in patent US10344025B2, “GLS1 inhibitors for treating disease” (Board of Regents, The University of Texas System, priority 2014, dated 2019).
Read-outs that look alike come from different tables or passages of the source.

What was measured:
[1] = target: purified recombinant human GAC (GLS1) (Homo sapiens (Human), UniProt O94925); assay: GLS1 Enzymatic Activity Assay (dual-coupled enzymatic assay, resorufin/Amplex UltraRed readout); type: biochemical;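 also: glutamate from GAC coupled via glutamate oxidase and peroxidase to resorufin, read as fluorescence (ex 530, em 590 nm) kinetically or at 20 min, four-parameter logistic IC50 fit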
Chain of purified recombinant human GAC (GLS1) (O94925 other isoform, or with tags, fused parts or gaps): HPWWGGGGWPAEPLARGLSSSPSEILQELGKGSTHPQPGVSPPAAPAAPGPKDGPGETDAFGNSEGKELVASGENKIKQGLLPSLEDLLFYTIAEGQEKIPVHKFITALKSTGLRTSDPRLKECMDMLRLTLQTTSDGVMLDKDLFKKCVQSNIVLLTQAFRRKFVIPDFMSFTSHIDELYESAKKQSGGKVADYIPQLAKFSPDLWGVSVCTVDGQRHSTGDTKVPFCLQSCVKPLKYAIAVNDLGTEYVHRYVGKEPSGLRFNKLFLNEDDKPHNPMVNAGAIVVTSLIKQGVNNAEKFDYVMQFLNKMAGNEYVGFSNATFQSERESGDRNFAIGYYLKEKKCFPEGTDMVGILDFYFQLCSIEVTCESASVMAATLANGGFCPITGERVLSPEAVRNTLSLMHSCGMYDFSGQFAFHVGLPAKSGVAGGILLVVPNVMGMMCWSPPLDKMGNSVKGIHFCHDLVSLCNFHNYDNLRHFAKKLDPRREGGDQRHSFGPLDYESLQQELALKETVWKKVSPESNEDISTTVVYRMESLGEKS

A549 cells = assay: Proliferation Assay (A549 viability, Cell Titer Fluor, 72 hours); type: cell-based
Method in brief: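 A549 cells seeded at 1000 cells/well, rested 24 h, then exposed to compound in 0.5% DMSO for 72 h at 37 °C. Viability read by Cell Titer Fluor fluorescence; IC50 from four-parameter logistic fit.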

IC50 [1] [µM] | EC50 (A549 cells; Homo sapiens, A549, 72 h) [µM] | EC50 (A549 cells) [µM] | Compound | EC50 (A549 cells; Homo sapiens) [µM]
< 0.1 | < 0.1 |  | CNC(=O)c1cn(CCCCc2ccc(NC(=O)CN3CCN(c4cccc(OC(F)(F)F)c4)CC3)nn2)nn1 [Example 228, N-methyl-1-(4-(6-(2-(4-(3-(trifluoromethoxy)phenyl)piperazin-1-yl)acetamido)pyridazin-3-yl)butyl)-1H-1,2,3-triazole-4-carboxamide] | 
< 0.1 | < 0.1 |  | CNC(=O)c1nnc(CCCCc2ccc(NC(=O)Cc3cc(C(F)(F)F)ccn3)nn2)s1 [Example 229, N-methyl-5-(4-(6-(2-(4-(trifluoromethyl)pyridin-2-yl)acetamido)pyridazin-3-yl)butyl)-1,3,4-thiadiazole-2-carboxamide] | 
< 0.1 | < 0.1 |  | CNC(=O)c1cn(CCCCc2ccc(NC(=O)CN3CCN(c4ccc(OC(F)(F)F)cc4)CC3)nn2)nn1 [Example 232, N-methyl-1-(4-(6-(2-(4-(4-(trifluoromethoxy)phenyl)piperazin-1-yl)acetamido)pyridazin-3-yl)butyl)-1H-1,2,3-triazole-4-carboxamide] | 
< 0.1 | 0.1 to 0.5 |  | O=C(NCc1ccccn1)c1cn(CC(F)CCc2nnc(C(=O)NCc3cc(C(F)(F)F)ccn3)s2)nn1 (stereo not drawn) [Example 234, 5-(3-fluoro-4-(4-((pyridin-2-ylmethyl)carbamoyl)-1H-1,2,3-triazol-1-yl)butyl)-N-((4-(trifluoromethyl)pyridin-2-yl)methyl)-1,3,4-thiadiazole-2-carboxamide] | 
< 0.1 | 0.1 to 0.5 |  | O=C(NCc1cc(C(F)(F)F)ccn1)c1cn(CC(F)CCc2nnc(C(=O)NCc3ccccn3)s2)nn1 (stereo not drawn) [Example 235, 5-(3-fluoro-4-(4-(((4-(trifluoromethyl)pyridin-2-yl)methyl)carbamoyl)-1H-1,2,3-triazol-1-yl)butyl)-N-(pyridin-2-ylmethyl)-1,3,4-thiadiazole-2-carboxamide] | 
< 0.1 | < 0.1 |  | CC(=O)Nc1ccc(CCC(F)Cn2cc(C(=O)NCc3cc(C(F)(F)F)ccn3)nn2)nn1 (stereo not drawn) [Example 236, 1-(4-(6-acetamidopyridazin-3-yl)-2-fluorobutyl)-N-((4-(trifluoromethyl)pyridin-2-yl)methyl)-1H-1,2,3-triazole-4-carboxamide] | 
< 0.1 | 0.1 to 0.5 |  | CNC(=O)c1cn(CCCCc2ccc(NC(=O)Cc3cccc(N(C)C)c3)nn2)nn1 [Example 237, 1-(4-(6-(2-(3-(dimethylamino)phenyl)acetamido)pyridazin-3-yl)butyl)-N-methyl-1H-1,2,3-triazole-4-carboxamide] | 
< 0.1 |  | 0.1 to 0.5 | CNC(=O)c1cn(C[C@@H](F)CCc2nnc(NC(=O)Cc3cccc(OC(F)(F)F)c3)s2)nn1 [Example 239, (S)-1-(2-fluoro-4-(5-(2-(3-(trifluoromethoxy)phenyl)acetamido)-1,3,4-thiadiazol-2-yl)butyl)-N-methyl-1H-1,2,3-triazole-4-carboxamide] | 
< 0.1 | < 0.1 |  | CNC(=O)c1cn(C[C@H](F)CCc2nnc(NC(=O)Cc3cccc(OC(F)(F)F)c3)s2)nn1 [Example 240, (R)-1-(2-fluoro-4-(5-(2-(3-(trifluoromethoxy)phenyl)acetamido)-1,3,4-thiadiazol-2-yl)butyl)-N-methyl-1H-1,2,3-triazole-4-carboxamide] | 
< 0.1 | < 0.1 |  | CNC(=O)c1cn(CC(F)CCc2ccc(NC(=O)CN3CCN(c4cccc(OC(F)(F)F)c4)CC3=O)nn2)nn1 (stereo not drawn) [Example 241, 1-(2-fluoro-4-(6-(2-(2-oxo-4-(3-(trifluoromethoxy)phenyl)piperazin-1-yl)acetamido)pyridazin-3-yl)butyl)-N-methyl-1H-1,2,3-triazole-4-carboxamide] | 
< 0.1 | < 0.1 |  | CNC(=O)c1cn(CC(F)CCc2ccc(NC(=O)Cc3ccccc3)nn2)nn1 (stereo not drawn) [Example 244, 1-(2-fluoro-4-(6-(2-phenylacetamido)pyridazin-3-yl)butyl)-N-methyl-1H-1,2,3-triazole-4-carboxamide] | 

Continued, compound first:

Compound | IC50 [1] [µM] | EC50 (A549 cells; Homo sapiens, A549, 72 h) [µM] | EC50 (A549 cells) [µM] | EC50 (A549 cells; Homo sapiens) [µM]
CNC(=O)c1cn(CC(F)CCc2nnc(C(=O)NCc3cccc(N4CCCCC4)c3)s2)nn1 (stereo not drawn) [Example 209, 5-(3-fluoro-4-(4-(methylcarbamoyl)-1H-1,2,3-triazol-1-yl)butyl)-N-(3-(piperidin-1-yl)benzyl)-1,3,4-thiadiazole-2-carboxamide] | 0.1 to 0.5 | 0.1 to 0.5 |  | 
O=C(Cc1ccccn1)Nc1ccc(CCC(F)Cn2cc(C(=O)NCc3cc(C(F)(F)F)ccn3)nn2)nn1 (stereo not drawn) [Example 211, 1-(2-fluoro-4-(6-(2-(pyridin-2-yl)acetamido)pyridazin-3-yl)butyl)-N-((4-(trifluoromethyl)pyridin-2-yl)methyl)-1H-1,2,3-triazole-4-carboxamide] | < 0.1 | < 0.1 |  | 
CNC(=O)c1cn(CCCCc2ccc(NC(=O)Cc3cccc(C4=CCN(C(=O)OC(C)(C)C)CC4)c3)nn2)nn1 [Example 212, tert-butyl 4-(3-(2-((6-(4-(4-(methylcarbamoyl)-1H-1,2,3-triazol-1-yl)butyl)pyridazin-3-yl)amino)-2-oxoethyl)phenyl)-3,6-dihydropyridine-1(2H)-carboxylate] | < 0.1 | < 0.1 |  | 
CNC(=O)c1cn(CCCCc2ccc(NC(=O)Cc3cccc(C4CCN(C(=O)OC(C)(C)C)CC4)c3)nn2)nn1 [Example 213, tert-butyl 4-(3-(2-((6-(4-(4-(methylcarbamoyl)-1H-1,2,3-triazol-1-yl)butyl)pyridazin-3-yl)amino)-2-oxoethyl)phenyl)piperidine-1-carboxylate] | < 0.1 | < 0.1 |  | 
CNC(=O)c1cn(CCCCc2ccc(NC(=O)CN3CCCCC3=O)nn2)nn1 [Example 214, N-methyl-1-(4-(6-(2-(2-oxopiperidin-1-yl)acetamido)pyridazin-3-yl)butyl)-1H-1,2,3-triazole-4-carboxamide] | 0.1 to 0.5 | > 5 |  | 
CNC(=O)c1cn(CCCCc2ccc(NC(=O)CN3CCC(c4ccccc4)CC3)nn2)nn1 [Example 215, N-methyl-1-(4-(6-(2-(4-phenylpiperidin-1-yl)acetamido)pyridazin-3-yl)butyl)-1H-1,2,3-triazole-4-carboxamide] | 0.1 to 0.5 | 0.5 to 5 |  | 
CNC(=O)c1nnc(CCCCc2ccc(NC(=O)Cc3cncc(-c4cccc(OC(F)(F)F)c4)c3)nn2)s1 [Example 216, N-methyl-5-(4-(6-(2-(5-(3-(trifluoromethoxy)phenyl)pyridin-3-yl)acetamido)pyridazin-3-yl)butyl)-1,3,4-thiadiazole-2-carboxamide] | < 0.1 | < 0.1 |  | 
CNC(=O)c1cn(CCCCc2ccc(NC(=O)Cc3cccc(C4CCOCC4)c3)nn2)nn1 [Example 217, N-methyl-1-(4-(6-(2-(3-(tetrahydro-2H-pyran-4-yl)phenyl)acetamido)pyridazin-3-yl)butyl)-1H-1,2,3-triazole-4-carboxamide] | < 0.1 | 0.1 to 0.5 |  | 
O=C(Cc1cc(OC(F)(F)F)ccc1F)Nc1nnc(CCC(F)Cn2cc(C(=O)NCc3cccnc3)nn2)s1 (stereo not drawn) [Example 218, 1-(2-fluoro-4-(5-(2-(2-fluoro-5-(trifluoromethoxy)phenyl)acetamido)-1,3,4-thiadiazol-2-yl)butyl)-N-(pyridin-3-ylmethyl)-1H-1,2,3-triazole-4-carboxamide] | < 0.1 | < 0.1 |  | 
COc1ccc(CNC(=O)c2cn(CC(F)CCc3nnc(NC(=O)Cc4cc(OC(F)(F)F)ccc4F)s3)nn2)cn1 (stereo not drawn) [Example 219, 1-(2-fluoro-4-(5-(2-(2-fluoro-5-(trifluoromethoxy)phenyl)acetamido)-1,3,4-thiadiazol-2-yl)butyl)-N-((6-methoxypyridin-3-yl)methyl)-1H-1,2,3-triazole-4-carboxamide] | < 0.1 | < 0.1 |  | 
COc1ncccc1CNC(=O)c1cn(CC(F)CCc2nnc(NC(=O)Cc3cc(OC(F)(F)F)ccc3F)s2)nn1 (stereo not drawn) [Example 223, 1-(2-fluoro-4-(5-(2-(2-fluoro-5-(trifluoromethoxy)phenyl)acetamido)-1,3,4-thiadiazol-2-yl)butyl)-N-((2-methoxypyridin-3-yl)methyl)-1H-1,2,3-triazole-4-carboxamide] | < 0.1 | < 0.1 |  | 
COC(=O)Nc1ccc(CCCCn2cc(C(=O)NCc3cc(C(F)(F)F)ccn3)nn2)nn1 [Example 224, methyl (6-(4-(4-(((4-(trifluoromethyl)pyridin-2-yl)methyl)carbamoyl)-1H-1,2,3-triazol-1-yl)butyl)pyridazin-3-yl)carbamate] | 0.1 to 0.5 | 0.1 to 0.5 |  | 
CNC(=O)c1cn(CC(F)CCc2nnc(NC(=O)Cc3cc(C(F)(F)F)ccn3)s2)nn1 (stereo not drawn) [Example 226, 1-(2-fluoro-4-(5-(2-(4-(trifluoromethyl)pyridin-2-yl)acetamido)-1,3,4-thiadiazol-2-yl)butyl)-N-methyl-1H-1,2,3-triazole-4-carboxamide] | < 0.1 | < 0.1 |  | 
CNC(=O)c1cn(CCCCc2ccc(NC(=O)CN3CCN(c4cccc(OC(F)(F)F)c4)CC3=O)nn2)nn1 [Example 227, N-methyl-1-(4-(6-(2-(2-oxo-4-(3-(trifluoromethoxy)phenyl)piperazin-1-yl)acetamido)pyridazin-3-yl)butyl)-1H-1,2,3-triazole-4-carboxamide] | < 0.1 | < 0.1 |  | 
O=C(Cc1ccccn1)Nc1nnc(CC[C@H](F)Cn2cc(C(=O)NCc3cc(C(F)(F)F)ccn3)nn2)s1 [Example 238, (S)-1-(2-fluoro-4-(5-(2-(pyridin-2-yl)acetamido)-1,3,4-thiadiazol-2-yl)butyl)-N-((4-(trifluoromethyl)pyridin-2-yl)methyl)-1H-1,2,3-triazole-4-carboxamide] | < 0.1 | 0.1 to 0.5 |  | 
CNC(=O)c1cn(CCCCc2ccc(NC(=O)OC3CCCCC3)nn2)nn1 [Example 243, cyclohexyl (6-(4-(4-(methylcarbamoyl)-1H-1,2,3-triazol-1-yl)butyl)pyridazin-3-yl)carbamate] | 0.1 to 0.5 |  |  | 0.1 to 0.5
